Data on 2 molecules can be found in patent US9828393B2, “Silylalkyloxyaryl compounds and methods for treating cancer” (THE REGENTS OF THE UNIVERSITY OF COLORADO, a body corporate, priority 2013, dated 2017).

Where two headings read alike, the source gives them in different places.

In one experiment the test system is HL-60(TB). Briefly: NCI-60 cell line screen (SRB), HL-60(TB). Format: cell-based, human. The settings on record: Homo sapiens. The procedure:
(§1) Drug sensitivity data are provided as GI50s (concentrations required to inhibit growth by 50%). The first row of the text file identifies cell lines, separated by tabs. Subsequent rows contain compound number, compound name, and GI50 for each cell line, each separated by a tab. […] For a typical screening experiment, cells are inoculated into 96 well microtiter plates in 100 μL at plating densities ranging from 5,000 to 40,000 cells/well depending on the doubling time of individual cell lines. After cell inoculation, the microtiter plates are incubated at 37° C., 5% CO2, 95% air and 100% relative humidity for 24 h prior to addition of experimental drugs. After 24 h, two plates of each cell line are fixed in situ with TCA, to represent a measurement of the cell population for each cell line at the time of drug addition (Tz). Experimental drugs are solubilized in dimethyl sulfoxide at 400-fold the desired final maximum test concentration and stored frozen prior to use. At the time of drug addition, an aliquot of frozen concentrate is thawed and diluted to twice the desired final maximum test concentration with complete medium containing 50 μg/ml gentamicin. Additional four, 10-fold or one-half log serial dilutions are made to provide a total of five drug concentrations plus control. Aliquots of 100 μl of these different drug dilutions are added to the appropriate microtiter wells already containing 100 μl of medium, resulting in the required final drug concentrations. Following drug addition, the plates are incubated for an additional 48 h at 37° C., 5% CO2, 95% air, and 100% relative humidity. For adherent cells, the assay is terminated by the addition of cold TCA. Cells are fixed in situ by the gentle addition of 50 μl of cold 50% (w/v) TCA (final concentration, 10% TCA) and incubated for 60 minutes at 4° C. The supernatant is discarded, and the plates are washed five times with tap water and air dried. Sulforhodamine B (SRB) solution (100 μl) at 0.4% (w/v) in 1% acetic acid is added to each well, and plates are incubated for 10 minutes at room temperature. After staining, unbound dye is removed by washing five times with 1% acetic acid and the plates are air dried. Bound stain is subsequently solubilized with 10 mM trizma base, and the absorbance is read on an automated plate reader at a wavelength of 515 nm. For suspension cells, the methodology is the same except that the assay is terminated by fixing settled cells at the bottom of the wells by gently adding 50 μl of 80% TCA (final concentration, 16% TCA). Using the seven absorbance measurements [time zero, (Tz), control growth, (C), and test growth in the presence of drug at the five concentration levels (Ti)], the percentage growth is calculated at each of the drug concentrations levels. […]

A further experiment concerns Leukemia cell lines. The experiment in a line: NCI-60 cell line screen, Leukemia panel average. Type of experiment: cell-based, human. The settings on record: Homo sapiens, read-out: GI50 Average. The method, then: as §1
The subject of the next experiment is NCI-H322M. Briefly: NCI-60 cell line screen (SRB), NCI-H322M. The conditions noted are these: Homo sapiens. Type of experiment: cell-based, human. The procedure: as §1
The test system of the next experiment is NCI-H460. Briefly: NCI-60 cell line screen (SRB), NCI-H460. The conditions noted are these: Homo sapiens. Type of experiment: cell-based, human. The method, then:
as §1

The test system of experiment [1] is Non-Small Cell Lung Cancer cell lines. The experiment in a line: NCI-60 cell line screen, Non-Small Cell Lung Cancer panel average. Format: cell-based, human. The settings on record: Homo sapiens, read-out: GI50 Average. The procedure: as §1
The test system of a further experiment is HT29. Briefly: NCI-60 cell line screen (SRB), HT29. Format: cell-based, human. The settings on record: Homo sapiens. The procedure: as §1
The test system of a further experiment is SF-268. The experiment in a line: NCI-60 cell line screen (SRB), SF-268. Format: cell-based, human. The conditions noted are these: Homo sapiens. The procedure:
as §1

The subject of a further experiment is SNB-75. Briefly: NCI-60 cell line screen (SRB), SNB-75. The settings on record: Homo sapiens. Type of experiment: cell-based. The procedure:
as §1, with “temperature.” for “temperature. After staining, unbound dye is removed by washing five times with 1% acetic acid and the plates are air dried. Bound stain is subsequently solubilized with 10 mM trizma base, and the absorbance is read on an automated plate reader at a wavelength of 515 nm. For suspension cells, the methodology is the same except that the assay is terminated by fixing settled cells at the bottom of the wells by gently adding 50 μl of 80% TCA (final concentration, 16% TCA). Using the seven absorbance measurements [time zero, (Tz), control growth, (C), and test growth in the presence of drug at the five concentration levels (Ti)], the percentage growth is calculated at each of the drug concentrations levels.”

In the next experiment the test system is SK-MEL-5. Briefly: NCI-60 cell line screen (SRB), SK-MEL-5. Type of experiment: cell-based, human. The settings on record: Homo sapiens. The procedure:
as §1

The next experiment has as its system IGROV1. The experiment in a line: NCI-60 cell line screen (SRB), IGROV1. The conditions noted are these: Homo sapiens. Type of experiment: cell-based, human. The method, then:
as §1

In the next experiment the test system is OVCAR-3. The experiment in a line: NCI-60 cell line screen (SRB), OVCAR-3. The settings on record: Homo sapiens. Format: cell-based, human. The method, then:
as §1

The test system of a further experiment is OVCAR-5. Briefly: NCI-60 cell line screen (SRB), OVCAR-5. Type of experiment: cell-based, human. The settings on record: Homo sapiens. The method, then:
as §1

Experiment [2] relates to Ovarian Cancer cell lines. The experiment in a line: NCI-60 cell line screen, Ovarian Cancer panel average. The settings on record: Homo sapiens, read-out: GI50 Average. Type of experiment: cell-based, human. The method, then:
as §1

The test system of a further experiment is ACHN. Briefly: NCI-60 cell line screen (SRB), ACHN. Type of experiment: cell-based, human. The conditions noted are these: Homo sapiens. The procedure: as §1
In another experiment the test system is SN12C. The experiment in a line: NCI-60 cell line screen (SRB), SN12C. Type of experiment: cell-based, human. The conditions noted are these: Homo sapiens. The method, then:
as §1

The test system of another experiment is TK-10. The experiment in a line: NCI-60 cell line screen (SRB), TK-10. Format: cell-based, human. The settings on record: Homo sapiens. The method, then: as §1
For a further experiment, the system named is UO-31. Briefly: NCI-60 cell line screen (SRB), UO-31. The conditions noted are these: Homo sapiens. Format: cell-based, human. The procedure: as §1
Another experiment relates to Renal Cancer cell lines. Briefly: NCI-60 cell line screen, Renal Cancer panel average. Type of experiment: cell-based, human. The settings on record: Homo sapiens, read-out: GI50 Average. The procedure: as §1
The subject of another experiment is PC-3. Briefly: NCI-60 cell line screen (SRB), PC-3. Format: cell-based, human. The settings on record: Homo sapiens. The procedure:
as §1

Another experiment concerns DU145. The experiment in a line: NCI-60 cell line screen (SRB), DU145. Type of experiment: cell-based, human. The conditions noted are these: Homo sapiens. The method, then: as §1
A further experiment has as its system MCF-7. The experiment in a line: NCI-60 cell line screen (SRB), MCF-7. The settings on record: Homo sapiens. Type of experiment: cell-based, human. The method, then:
as §1

Another experiment concerns BT-549. Briefly: NCI-60 cell line screen (SRB), BT-549. Format: cell-based, human. The conditions noted are these: Homo sapiens. The method, then:
as §1

For another experiment, the system named is T-47D. The experiment in a line: NCI-60 cell line screen (SRB), T-47D. Format: cell-based, human. The settings on record: Homo sapiens, T47D. The method, then: as §1
In the next experiment the test system is MDA-MB-468. The experiment in a line: NCI-60 cell line screen (SRB), MDA-MB-468. The settings on record: Homo sapiens. Format: cell-based, human. The method, then:
as §1

The mark [3] stands for this setting: Renal Cancer, 48 h drug incubation, read-out: GI50.

One may read the GI50 as the concentration that inhibits growth by half. `CCCC[Si](C)(C)COc1ccc(C(=O)N[C@@H](Cc2ccc(OCc3c(Cl)cccc3Cl)cc2)C(=O)NC2CC(C)(C)NC(C)(C)C2)cc1` [GH1503, N^α-{4-[(butyldimethylsilyl)methoxy]-benzoyl}-N-(2,2,6,6-tetramethylpiperidin-4-yl)-[O-(2,6-dichlorobenzyl)-L-tyrosinamide]]: the GI50 in the experiment with HL-60(TB) (Leukemia, HL-60(TB), 48 h drug incubation, read-out: GI50) is 790 nM; in the experiment with Leukemia cell lines (average over Leukemia panel), 572 nM; with NCI-H322M (Non-Small Cell Lung Cancer, 48 h drug incubation, read-out: GI50), 1570 nM; in the experiment on NCI-H460 (Non-Small Cell Lung Cancer, NCI-H460, 48 h drug incubation, read-out: GI50), 259 nM; in experiment [1] (average over Non-Small Cell Lung Cancer panel), 1210 nM; in the experiment with HT29 (HT-29, Colon Cancer, HT29, 48 h drug incubation, read-out: GI50), 342 nM. The GI50 came out at 611 nM in the experiment with SF-268 (CNS Cancer, SF-268, 48 h drug incubation, read-out: GI50); 1350 nM in the experiment on SNB-75 (CNS Cancer, SNB-75, 48 h drug incubation, read-out: GI50); 1680 nM in the experiment with SK-MEL-5 (Melanoma, SK-MEL-5, 48 h drug incubation, read-out: GI50); 704 nM in the experiment on IGROV1 (IGROV-1, Ovarian Cancer, IGROV1, 48 h drug incubation, read-out: GI50); 761 nM in the experiment with OVCAR-3 (Ovarian Cancer, OVCAR-3, 48 h drug incubation, read-out: GI50); 1620 nM in the experiment with OVCAR-5 (Ovarian Cancer, OVCAR-5, 48 h drug incubation, read-out: GI50). For the same molecule, the GI50 was found to be 1050 nM in [2] (average over Ovarian Cancer panel); 478 nM in the experiment on ACHN (setting [3]); 613 nM with SN12C (setting [3]); 1890 nM in the experiment with TK-10 (Renal Cancer, TK-10, 48 h drug incubation, read-out: GI50); 1500 nM in the experiment with UO-31 (Renal Cancer, UO-31, 48 h drug incubation, read-out: GI50); 1050 nM in the experiment with Renal Cancer cell lines (average over Renal Cancer panel). For the same molecule, the GI50 was 490 nM in the experiment with PC-3 (Prostate Cancer, PC-3, 48 h drug incubation, read-out: GI50); 274 nM in the experiment on DU145 (DU-145, Prostate Cancer, DU145, 48 h drug incubation, read-out: GI50); 356 nM in the experiment on MCF-7 (MCF7, Breast Cancer, MCF-7, 48 h drug incubation, read-out: GI50); 2110 nM with BT-549 (Breast Cancer, BT-549, 48 h drug incubation, read-out: GI50); 1840 nM with T-47D (Breast Cancer, T-47D, 48 h drug incubation, read-out: GI50); 1540 nM in the experiment on MDA-MB-468 (Breast Cancer, MDA-MB-468, 48 h drug incubation, read-out: GI50).

Take `CCCC[Si](C)(C)COc1ccc(C(=O)N[C@@H](Cc2ccc(-c3ccccc3)cc2)C(=O)NC2CC(C)(C)NC(C)(C)C2)cc1` [GH1504, N^α-{4-[(butyldimethylsilyl)methoxy]-benzoyl}-N-(2,2,6,6-tetramethylpiperidin-4-yl)-(4-phenyl-L-phenylalaninamide)]: the GI50 in the experiment with HL-60(TB) (HL-60, 48 h) amounted to 1220 nM; in the experiment on Leukemia cell lines, 1170 nM; in the experiment on NCI-H322M (48 h), 1710 nM; in the experiment with NCI-H460 (NCI-H460, 48 h), 348 nM; in [1], 1020 nM; in the experiment with HT29 (HT-29, 48 h) it was 315 nM. In addition, the GI50 in the experiment on SF-268 (SF-268, 48 h) is 679 nM; with SNB-75 (SNB-75, 48 h), 1630 nM; in the experiment with SK-MEL-5 (SK-MEL-5, 48 h) it was 234 nM; with IGROV1 (IGROV-1, 48 h), 1640 nM; in the experiment with OVCAR-3 (OVCAR-3, 48 h), 202 nM; in the experiment with OVCAR-5 (OVCAR-5, 48 h), 1810 nM. Moreover, the GI50 stood at 1150 nM in [2]; 402 nM in the experiment on ACHN (48 h); 526 nM in the experiment on SN12C (48 h); 1110 nM in the experiment on TK-10 (TK-10, 48 h); 1550 nM in the experiment on UO-31 (UO-31, 48 h); 1010 nM in the experiment with Renal Cancer cell lines. Further, the GI50 is 1300 nM in the experiment on PC-3 (PC-3, 48 h); 368 nM in the experiment on DU145 (DU-145, 48 h); 332 nM in the experiment with MCF-7 (MCF7, 48 h); 1960 nM in the experiment on BT-549 (BT-549, 48 h); 1820 nM with T-47D (48 h); 198 nM in the experiment with MDA-MB-468 (MDA-MB-468, 48 h).
